Measurements reported in PMC11943946, “Anti-Neuroinflammatory Eremophilane Sesquiterpenoids from Marine-Derived Fungus Phoma sp. DXH009” (Marine Drugs, 2025).

Key:
[1] = test system: LPS-stimulated microglia BV2 cells; test: Cellular NO production in LPS-stimulated BV2 microglia; assay type: cell-based; details: for NO inhibition (SAR statement) / reduction in NO content: 20 μM; for NO inhibition (SAR statement): relative to analogues with intact C-6–C-7 / C-11–C-12 motifs; for reduction in NO content: vs LPS control cells
Procedure: (§1) The cellular NO levels were determined using a Nitric Oxide Assay Kit with DAF-FM DA (Beyotime, Nantong, China). A total of 5000 cells were planted in 96-well plates and maintained for 24 h. Then, they were induced with 1 μg/mL lipopolysaccharide (LPS) in the presence or absence of compounds at a final concentration of 20 μM for 24 h. Untreated wells were used as control. Then, supernatant of the culture medium was investigated with a Nitric Oxide Assay Kit with DAF-FM DA (Beyotime, S0020S) per the manufacturer’s instruction. Cells were stained with 2 µM hochest 33,342 at room temperature for 10 min, then cell numbers were auto-counted using the high-content screening system. The cell number in the LPS control group was set as 100%, and the relative cell survival ratios were calculated.

[2] = BV2 cell viability / proliferation (CCK-8, cell count); assay type: cell-based; details: mouse; BV2 cells, 24 h; read-out: IC50 against BV2 cell proliferation (cytotoxicity)
Procedure: as §1
(§2) BV2 microglial cells were seeded into 96-well plates at a density of 1 × 10^4 cells/well and allowed to adhere for 24 h. Cells were then exposed to different concentrations (20 μM for 1–9; 0, 1, 5, 10, 20, 50, 100 μM for 5) of the test compounds (1–9) in triplicate, with DMSO concentrations normalized across all treatment groups. After 24 h incubation, 10 μL CCK-8 reagent (Beyotime Biotechnology, Nantong, China) was added to each well, followed by 30 min incubation at 37 °C. Absorbance at 450 nm was quantified using a BioTek microplate reader (BioTek, Winooski, VT, USA), with cell viability calculated relative to vehicle-treated controls.

[3] = test system: LPS-treated BV2 microglia cells; test: Microglia polarization markers ARG 1 and iNOS (immunofluorescence, immunoblot); assay type: cell-based; details: 2.5, 5, 10 μM, LPS 0.5 μg/mL, 24 h
Procedure: (§3) Cells or tissues were lysed with RIPA lysis buffer containing protease and phosphatase inhibitor cocktail and total protein was extracted and quantified by using a protein determination kit (Thermo Fisher Scientific, Cat#23227, Beijing, China). Protein samples were prepared by centrifugation at the speed of 12,000× g for 30 min at 4 °C; the supernatant was boiled at 95 °C for 10 min and then subjected to SDS-PAGE. An amount of 15 µg of total protein was separated by electrophoresis in a 10% SDS-polyacrylamide gel and transferred to a PVDF membrane (Thermo Fisher Scientific, Cat#88520, Beijing, China). After blocking, the full membranes were cropped according to the molecular weight of examined proteins and incubated with antibodies at 4 °C overnight. […] The average protein levels of control group cells or control mice from each independent experiment or mice were set as 1, and relative changes were calculated.
For the immunofluorescence assay, cells were fixed with pre-cold ethanol at –20 °C, then blocked and incubated with anti-iNOS (Abcam, ab178945) and mouse anti-ARG 1 (Proteintech, 66129) at 4 °C overnight. […] Fluorescence images were acquired using a confocal microscope (Olympus, Tokyo, Japan).

NF-κB p65 = NF-κB p65 signaling pathway (Western blot); assay type: cell-based; details: 2.5, 5, 10 μM, LPS-treated BV2 cells
Procedure: as §3, with “overnight. The used antibodies were listed as follows: anti-iNOS (Abcam, ab178945, Cambridge, UK), anti-COX2 (Affinity, AF7003, Changzhou, China), anti-actin (Affinity Biosciences, AF7018, Changzhou, China), anti-ARG1 (Proteintech, 66129, Wuhan, China), anti-IL-1β (Proteintech, 26048, Wuhan, China), anti-GAPDH (Bioss, bs-41373R, Beijing, China), anti-IL-6 (Affinity, DF6087, Changzhou, China), anti-TNFα (Affinity, AF7014, Changzhou, China), anti-IBA1 (Affinity, DF6442, Changzhou, China).” for “overnight.”

[4] = test system: LPS-treated BV2 microglia cells; test: Inflammatory markers in LPS-treated microglia cells (Western blot); assay type: cell-based; details: 2.5, 5, 10 μM
Procedure: as §3, with “overnight. The used antibodies were listed as follows: anti-iNOS (Abcam, ab178945, Cambridge, UK), anti-COX2 (Affinity, AF7003, Changzhou, China), anti-actin (Affinity Biosciences, AF7018, Changzhou, China), anti-ARG1 (Proteintech, 66129, Wuhan, China), anti-IL-1β (Proteintech, 26048, Wuhan, China), anti-GAPDH (Bioss, bs-41373R, Beijing, China), anti-IL-6 (Affinity, DF6087, Changzhou, China), anti-TNFα (Affinity, AF7014, Changzhou, China), anti-IBA1 (Affinity, DF6442, Changzhou, China).” for “overnight.”

LPS-treated mice = test: LPS-induced neuroinflammation mouse model (cortex and hippocampus); assay type: in vivo; details: intraperitoneal; for expression levels of IBA1 in cortex / inflammatory markers iNOS, COX2, IL-1β, IL-6 in cortex (mRNA and protein) / protein level of ARG 1 in cortex: 5 at 10, 20, 40 mg/kg or Dex 15 mg/kg
Procedure: Cells or tissues were lysed with RIPA lysis buffer containing protease and phosphatase inhibitor cocktail and total protein was extracted and quantified by using a protein determination kit (Thermo Fisher Scientific, Cat#23227, Beijing, China). Protein samples were prepared by centrifugation at the speed of 12,000× g for 30 min at 4 °C; the supernatant was boiled at 95 °C for 10 min and then subjected to SDS-PAGE. An amount of 15 µg of total protein was separated by electrophoresis in a 10% SDS-polyacrylamide gel and transferred to a PVDF membrane (Thermo Fisher Scientific, Cat#88520, Beijing, China). After blocking, the full membranes were cropped according to the molecular weight of examined proteins and incubated with antibodies at 4 °C overnight. The used antibodies were listed as follows: anti-iNOS (Abcam, ab178945, Cambridge, UK), anti-COX2 (Affinity, AF7003, Changzhou, China), anti-actin (Affinity Biosciences, AF7018, Changzhou, China), anti-ARG1 (Proteintech, 66129, Wuhan, China), anti-IL-1β (Proteintech, 26048, Wuhan, China), anti-GAPDH (Bioss, bs-41373R, Beijing, China), anti-IL-6 (Affinity, DF6087, Changzhou, China), anti-TNFα (Affinity, AF7014, Changzhou, China), anti-IBA1 (Affinity, DF6442, Changzhou, China). The membranes were washed to remove unbound antibodies and then incubated with HRP-conjugated secondary antibodies at room temperature for 45 min. Protein bands were visualized one by one with an ECL kit (Millipore, Cat#6-201BP, Beijing, China). The uncropped immunoblot data were uploaded as a Supplementary File. Densitometry analysis was performed using Image J Software, Version 1.54p (Rawak Software Inc., Stuttgart, Germany) relative to the loading control, β-actin; GAPDH; or tubulin. The average protein levels of control group cells or control mice from each independent experiment or mice were set as 1, and relative changes were calculated.
Male, 4-week-old C57BL/6J mice were obtained from Peking SiPeiFu Biotechnology Co., Ltd. (Beijing, China), with quality certificate number No.110324241107423512. After acclimation, mice were weighted and divided randomly into 6 groups, including control, LPS control mice, LPS + dexamethasone (Dex, 15 mg/kg), and LPS + HN-005 (10, 20, 40 mg/kg). Mice were intraperitoneally injected with dexamethasone or compound 5 for 2 days, while the control and LPS control group was intraperitoneally injected with an identical volume of 200 μL 0.9% saline. A total of 6 mg/kg LPS was intraperitoneally injected on the second day beyond the control group. After treatment, the mice were weighed and euthanized for brain anatomy.
Mice were anesthetized and their chest dissected to expose the heart sufficiently. The infusion needle penetrated the ventriculus sinister by about 0.5 cm and perfused it with 40 mL sterile PBS buffer until the liver turned white. Then, the prefrontal cortex and hippocampus were separated and preserved. For the immunochemistry assay, the cortex and hippocampus were fixed at 4% PFA at room temperature for 2–4 days. The fixed brain was embedded into paraffin and sectioned at 5 μm in the coronal plane using a sliding microtone (Leica, CM1950, Weztlar, Germany), then blocked with 5% goat serum TBS buffer at room temperature for one hour. After blocking, tissue slides were incubated with the first antibody against IBA1 (Affinity, DF6442, Changzhou, China) at 4 °C for 16 h, then rinsed with TBST three times and incubated with Alex flour 555 conjugated goat anti-rabbit secondary antibody (1:500) and DAPI (1:1000) at 4 °C overnight. A section incubated only with the secondary antibody was used as a negative control. For HE staining, the section was stained with an H&E staining kit (Servicebio, G1076, Wuhan, China) per the manufacturer’s instruction. Fluorescence images were acquired using a confocal microscope (Olympus, Tokyo, Japan). […]

[5] = test system: Amaranthus hypochondriacus; set-up: method as in PMID 25603174; details: read-out: IC50 herbicidal effect (radicle growth); cited from earlier work
Echinochloa crus-galli = test system: Echinochloa crus-galli; set-up: method as in PMID 25603174; details: read-out: IC50 herbicidal effect (radicle growth); cited from earlier work
Lactuca sativa = test system: Lactuca sativa; set-up: method as in doi:10.1584/jpestics.14.223; details: 250 ppm; cited from earlier work
Ehrlich carcinoma cells = test system: Ehrlich carcinoma cells; set-up: method as in doi:10.1007/s10600-014-0836-9; details: cited from earlier work
Vero cells = test system: Vero cells; set-up: method as in PMID 25734623; details: noncancerous Vero cells; read-out: IC50 toxicity; cited from earlier work
BV2 microglial cells = test: BV2 cell viability / proliferation (CCK-8, cell count); assay type: cell-based; details: 20 µM
Procedure: as §1, §2

APP/PS1 transgenic mice = test system: APP/PS1 transgenic mice; set-up: method as in PMID 39004599, PMID 25686105; details: cited from earlier work
[6] = test system: early-stage PD participants; set-up: method as in PMID 38504306; details: Phase II trial NCT04542915; cited from earlier work
NF-κB signaling = test system: NF-κB signaling; set-up: method as in PMID 38616356, PMID 31590042; details: BV2 microglia; read-out: IC50 suppressing NF-κB signaling; cited from earlier work
AD mice = test system: AD mice; set-up: method as in PMID 38616356, PMID 31590042; details: relative to untreated AD mice; cited from earlier work
[7] = test system: LPS-activated BV-2 microglia; set-up: method as in PMID 34605647; details: read-out: IC50 suppressing nitric oxide production; cited from earlier work

Compound: CC1C(O)CCC2=CC(=O)C(C(C)(C)O)=CC21C (stereo not shown) [Compound 2, Phomenone D]
- NO inhibition (SAR statement) [1]: high reduction in NO inhibition

Compound: C=C(C)[C@]1(O)C[C@@]2(C)C(=CC1=O)CC[C@@H](O)[C@@H]2C [Compound 3, Hydroxypetasol]
- NO inhibition (SAR statement) [1]: high reduction in NO inhibition

Compound: C=C(C)[C@@]12O[C@@H]1[C@@]1(C)C(=C[C@@H]2O)CC[C@@H](O)[C@@H]1C [Compound 5, dihydrosporogen AO-1]
- reduction in NO content ([1]; 24 h): 78%
- EC50 ([1]; Mus musculus, BV-2, LPS-treated BV2 microglial cells, 24 h, read-out: EC50 in decreasing cellular NO production): 3.11 µM
- selectivity index (SI) ([1]; cytotoxicity IC50 vs NO EC50, BV2 cells): 12.2
- IC50 [2]: 38 µM
- iNOS and ARG 1 protein levels [3]: dose-dependently reversed iNOS elevations and ARG 1
- ratio of ARG 1 to iNOS [3]: corrected the decreased ratio of ARG 1 to iNOS
- activation of NF-κB axis (phosphorylated NF-κB p65) (NF-κB p65): dose-dependently reversed the activation of the NF-κB axis
- total level of NF-κB p65 (NF-κB p65): no major change
- level of inflammatory markers IBA1, COX-2, TNF-α, IL-1β, IL-6 [4]: efficiently reversed the increases in the level of inflammatory markers
- expression levels of IBA1 in cortex (LPS-treated mice): markedly decreased the expression levels of IBA1
- inflammatory markers iNOS, COX2, IL-1β, IL-6 in cortex (mRNA and protein) (LPS-treated mice): efficiently suppressed the activation of these inflammatory markers
- protein level of ARG 1 in cortex (LPS-treated mice): dose-dependently increased the protein level of ARG 1
- neuroinflammation in hippocampus tissue (LPS-treated mice; 10, 20, 40 mg/kg): inhibits neuroinflammation in the hippocampus tissue
- IC50 [5]: 170 µM
- IC50 (Echinochloa crus-galli): 300 µM
- inhibition (radicle growth) (Lactuca sativa): 70%
- ED50 cytotoxicity (Ehrlich carcinoma cells): 400 µM
- IC50 (Vero cells): 24000 µM

Compound: C=C(C)[C@@H]1C[C@@]2(C)C(=CC1=O)CC[C@@H](O)[C@@H]2C [Compound 8, petasol]
- proliferation inhibition (cytotoxicity) (BV2 microglial cells): 35–85%

Compound: C=C(C)C1=C[C@@]2(C)C(=CC1=O)CC[C@@H](O)[C@@H]2C [Compound 9, 6-dehydropetasol]
- proliferation inhibition (cytotoxicity) (BV2 microglial cells): 35–85%

Compound: C[C@@H]1C[C@H]2[C@@H]3CCC4=CC(=O)C=C[C@]4(C)[C@@]3(F)[C@@H](O)C[C@]2(C)[C@@]1(O)C(=O)CO [Dex, dexamethasone, reference compound]
- reduction in NO content ([1]; 24 h): 77%
- expression levels of IBA1 in cortex (LPS-treated mice): markedly decreased the expression levels of IBA1
- inflammatory markers iNOS, COX2, IL-1β, IL-6 in cortex (mRNA and protein) (LPS-treated mice): efficiently suppressed the activation of these inflammatory markers
- protein level of ARG 1 in cortex (LPS-treated mice): no induction effect was observed

Compound: CC(C)(O)c1coc(S(=O)(=O)NC(=O)Nc2c3c(cc4c2CCC4)CCC3)c1 [MCC950]
- attenuation of hippocampal IL-1β production (APP/PS1 transgenic mice): 68.5%

Compound: Oc1ccc(/C=C/c2cc(O)cc(O)c2)cc1 [Resveratrol]
- reduction in CSF TNF-α levels [6]: 31.6%

Compound: COc1cc(/C=C/C(=O)CC(=O)/C=C/c2ccc(O)c(OC)c2)ccc1O [curcumin]
- IC50 (NF-κB signaling): 4.7 µM
- improvement in radial arm maze errors (AD mice): 37.2%

Compound: C=C1CO[C@@]2(O)CC3=CC(=O)C(O)=C(C)[C@@]3(C)C[C@@]12O [septoreremophilane F]
- IC50 [7]: 12 ± 0.32 µM
